Measurements taken from ChEMBL document CHEMBL6087488, “Development of the First-in-Class FEM1B-Recruiting Histone Deacetylase Degraders” (J Med Chem, 2025).
Each block holds one compound with its values, some of them ahead of it. Activity calls are given as the source filed them. No cut-off for these calls is given here.

Tests used:
[1] = target: T1, Protein deacetylase HDAC6 (Homo sapiens, UniProt Q9UBN7); assay: Inhibition of human HDAC6 using ZMAL (Z-(Ac)Lys-AMC) as substrate incubated for 90 mins by fluorescence based assay
T1 sequence (Q9UBN7 whole entry): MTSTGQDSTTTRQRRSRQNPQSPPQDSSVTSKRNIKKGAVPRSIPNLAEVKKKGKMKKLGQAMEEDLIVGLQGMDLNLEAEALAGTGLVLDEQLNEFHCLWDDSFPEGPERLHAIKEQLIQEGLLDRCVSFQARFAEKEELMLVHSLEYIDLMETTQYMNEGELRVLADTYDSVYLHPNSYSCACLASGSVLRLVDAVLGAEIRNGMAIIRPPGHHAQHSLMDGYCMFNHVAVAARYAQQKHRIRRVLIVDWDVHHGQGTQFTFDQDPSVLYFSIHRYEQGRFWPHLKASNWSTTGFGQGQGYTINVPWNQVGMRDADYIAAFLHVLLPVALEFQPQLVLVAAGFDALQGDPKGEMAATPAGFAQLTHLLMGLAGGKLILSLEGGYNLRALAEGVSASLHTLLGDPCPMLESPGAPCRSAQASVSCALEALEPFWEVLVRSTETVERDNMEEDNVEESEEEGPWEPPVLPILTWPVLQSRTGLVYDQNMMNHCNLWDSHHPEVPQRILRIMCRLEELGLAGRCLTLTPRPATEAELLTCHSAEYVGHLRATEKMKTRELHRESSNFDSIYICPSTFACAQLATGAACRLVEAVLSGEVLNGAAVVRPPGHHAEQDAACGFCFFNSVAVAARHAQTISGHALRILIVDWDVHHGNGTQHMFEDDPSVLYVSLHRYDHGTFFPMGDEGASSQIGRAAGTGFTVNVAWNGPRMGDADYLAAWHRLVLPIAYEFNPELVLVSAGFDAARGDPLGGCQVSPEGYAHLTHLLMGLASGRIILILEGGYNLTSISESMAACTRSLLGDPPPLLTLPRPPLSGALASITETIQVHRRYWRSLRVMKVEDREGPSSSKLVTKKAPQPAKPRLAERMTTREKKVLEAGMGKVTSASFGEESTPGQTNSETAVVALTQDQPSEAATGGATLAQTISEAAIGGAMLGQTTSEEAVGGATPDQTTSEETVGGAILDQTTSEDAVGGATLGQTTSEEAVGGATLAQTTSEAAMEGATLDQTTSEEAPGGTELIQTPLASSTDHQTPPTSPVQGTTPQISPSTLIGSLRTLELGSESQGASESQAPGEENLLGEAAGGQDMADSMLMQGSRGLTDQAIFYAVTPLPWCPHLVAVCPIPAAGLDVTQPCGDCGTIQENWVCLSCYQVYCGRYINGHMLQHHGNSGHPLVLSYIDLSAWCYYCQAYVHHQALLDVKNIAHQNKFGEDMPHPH

Histone deacetylase 4 = Histone deacetylase 4 (Homo sapiens, UniProt P56524); assay: Inhibition of human HDAC4 using Boc-Lys(Tfa)-AMC as substrate incubated for 90 mins by fluorescence based assay; conditions: read-out: IC50
[2] = target: T2, Protein fem-1 homolog B/Histone deacetylase 1 (Homo sapiens, UniProt Q13547+Q9UK73); assay: PROTAC activity at FEM1B/HDAC1 in human MM.1S cell lysate assessed as maximal initial degradation at measured after 24 hrs by Western immunoassay relative to control; format: subcellular; conditions: MM1.S
Target sequence in this assay (Q13547 whole entry, looked up): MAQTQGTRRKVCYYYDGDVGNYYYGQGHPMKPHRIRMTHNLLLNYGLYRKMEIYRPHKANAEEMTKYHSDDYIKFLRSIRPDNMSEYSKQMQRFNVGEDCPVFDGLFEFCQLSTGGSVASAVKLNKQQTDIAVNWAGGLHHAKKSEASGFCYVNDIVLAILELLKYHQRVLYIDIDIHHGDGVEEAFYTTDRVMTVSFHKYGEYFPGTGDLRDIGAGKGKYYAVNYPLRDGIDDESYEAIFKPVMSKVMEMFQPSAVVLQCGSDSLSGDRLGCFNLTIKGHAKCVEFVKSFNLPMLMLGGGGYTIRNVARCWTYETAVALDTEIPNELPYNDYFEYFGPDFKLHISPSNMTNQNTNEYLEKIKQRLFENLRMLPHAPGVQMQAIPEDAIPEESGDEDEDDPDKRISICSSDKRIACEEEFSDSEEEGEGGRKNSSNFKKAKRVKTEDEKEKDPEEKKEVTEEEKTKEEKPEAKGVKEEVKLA
Target sequence in this assay (Q9UK73 whole entry, looked up): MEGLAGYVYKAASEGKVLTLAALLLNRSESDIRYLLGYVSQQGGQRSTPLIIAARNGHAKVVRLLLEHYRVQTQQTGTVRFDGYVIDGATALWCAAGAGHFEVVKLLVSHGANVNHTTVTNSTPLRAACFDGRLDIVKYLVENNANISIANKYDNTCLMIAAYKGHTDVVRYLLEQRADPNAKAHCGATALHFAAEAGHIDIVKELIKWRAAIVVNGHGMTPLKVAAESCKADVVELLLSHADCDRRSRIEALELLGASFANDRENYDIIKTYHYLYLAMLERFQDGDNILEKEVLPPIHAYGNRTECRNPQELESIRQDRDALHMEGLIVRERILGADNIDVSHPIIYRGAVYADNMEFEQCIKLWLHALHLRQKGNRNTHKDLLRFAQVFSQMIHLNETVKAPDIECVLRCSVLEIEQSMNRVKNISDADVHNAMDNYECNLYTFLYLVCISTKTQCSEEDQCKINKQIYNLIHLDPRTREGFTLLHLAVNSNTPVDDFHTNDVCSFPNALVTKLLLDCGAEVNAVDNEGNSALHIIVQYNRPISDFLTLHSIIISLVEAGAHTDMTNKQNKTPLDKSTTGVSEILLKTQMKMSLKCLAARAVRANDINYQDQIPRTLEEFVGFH

[3] = target: Protein fem-1 homolog B/Histone deacetylase 4 (Homo sapiens) (UniProt P56524+Q9UK73); assay: PROTAC activity at FEM1B/HDAC4 in human MM1.S cell lysate assessed as protein degradation at 1 uM measured after 24 hrs by Western immunoassay; format: subcellular
U-87 MG [4] = assay: Antiproliferative activity against human U-87 MG cells assessed as cell viability measured after 72 hrs incubation by MTT assay; format: functional, cell-based, U-87MG ATCC
MM1.S [5] = assay: Induction of cell cycle arrest in human MM1.S cells assessed as reduction in cells at […] phase at 10 uM measured after 48 hrs by propidium iodide based flow cytometry; format: functional
[6] = target: Protein fem-1 homolog B/Histone deacetylase 8 (Homo sapiens) (UniProt Q9BY41+Q9UK73); assay: PROTAC activity at FEM1B/HDAC8 in human MM1.S cell lysate assessed as protein degradation at 1 uM measured after 24 hrs by Western immunoassay; format: subcellular
[7] = target: T2, Protein fem-1 homolog B/Histone deacetylase 1; assay: PROTAC activity at FEM1B/HDAC1 in human MM1.S cell lysate assessed as initial degradation measured after 24 hrs by Western immunoassay; format: subcellular
Target sequence in this assay (Q13547 whole entry): as the sequence (Q13547 whole entry, looked up) above
Target sequence in this assay (Q9UK73 whole entry): as the sequence (Q9UK73 whole entry, looked up) above

[8] = target: T2, Protein fem-1 homolog B/Histone deacetylase 1; assay: PROTAC activity at FEM1B/HDAC1 in human MM1.S cell lysate assessed as protein degradation at 1 uM measured after 24 hrs by Western immunoassay; format: subcellular
Target sequence in this assay (Q13547 whole entry, looked up): as the sequence (Q13547 whole entry, looked up) above
Target sequence in this assay (Q9UK73 whole entry, looked up): as the sequence (Q9UK73 whole entry, looked up) above

Histone deacetylase 2 = Histone deacetylase 2 (Homo sapiens, UniProt Q92769); assay: Inhibition of human HDAC2 using ZMAL (Z-(Ac)Lys-AMC) as substrate incubated for 90 mins by fluorescence based assay
MV4-11 = assay: Antiproliferative activity against human MV4-11 cells assessed as cell viability measured after 72 hrs incubation by MTT assay; format: functional, cell-based; conditions: MV4-11, 72 h
[9] = target: Protein fem-1 homolog B/Histone deacetylase 3 (Homo sapiens) (UniProt O15379+Q9UK73); assay: PROTAC activity at FEM1B/HDAC3 in human MM1.S cell lysate assessed as protein degradation at 1 uM measured after 24 hrs by Western immunoassay; format: subcellular
MM1.S [10] = assay: Antiproliferative activity against human MM1.S cells assessed as cell viability measured after 72 hrs incubation by MTT assay; format: functional, cell-based
MM1.S [11] = assay: Antiproliferative activity against human MM1.S cells assessed as cell viability measured after 72 hrs by CellTiter-Glo cell viability assay; format: functional, cell-based; conditions: Homo sapiens, MM1.S, 72 h
[12] = target: Protein fem-1 homolog B/Protein deacetylase HDAC6 (Homo sapiens) (UniProt Q9UBN7+Q9UK73); assay: PROTAC activity at FEM1B/HDAC6 in human MM1.S cell lysate assessed as protein degradation at 1 uM measured after 24 hrs by Western immunoassay; format: subcellular
Histone deacetylase 1 = Histone deacetylase 1 (Homo sapiens, UniProt Q13547); assay: Inhibition of human recombinant HDAC1 using ZMAL (Z-(Ac)Lys-AMC) as substrate incubated for 90 mins by fluorescence based assay
MDA-MB-231 [13] = assay: Antiproliferative activity against human MDA-MB-231 cells assessed as cell viability measured after 72 hrs incubation by MTT assay; format: functional, cell-based; conditions: MDA-MB-231, 72 h
[14] = target: T2, Protein fem-1 homolog B/Histone deacetylase 1; assay: PROTAC activity at FEM1B/HDAC1 in human MM1.S cell lysate assessed as initial degradation at 1 uM measured after 24 hrs by Western immunoassay; format: subcellular
Target sequence in this assay (Q13547 whole entry, looked up): as the sequence (Q13547 whole entry, looked up) above
Target sequence in this assay (Q9UK73 whole entry, looked up): as the sequence (Q9UK73 whole entry, looked up) above

MM1.S [15] = assay: Induction of cell cycle arrest in human MM1.s cells assessed as increase in cells at Sub-G1 phase at 10 uM measured after 48 hrs by propidium iodide based flow cytometry; format: functional
[16] = target: Protein fem-1 homolog B/Histone deacetylase 2 (Homo sapiens) (UniProt Q92769+Q9UK73); assay: PROTAC activity at FEM1B/HDAC2 in human MM1.S cell lysate assessed as protein degradation at 1 uM measured after 24 hrs by Western immunoassay; format: subcellular
MM1.S [17] = assay: Induction of apoptosis in human MM1.S cells assessed as increase in late apoptotic cells at 10 uM measured after 48 hrs by annexin V-FITC/PI staining based assay; format: functional, cell-based
MM1.S [18] = assay: Induction of apoptosis in human MM1.S cells assessed as increase in early apoptotic cells at 10 uM measured after 48 hrs by annexin V-FITC/PI staining based assay; format: functional, cell-based
U-87 MG [19] = assay: Antiproliferative activity against human U-87 MG cells assessed as cell viability up to 50 uM measured after 72 hrs incubation by MTT assay relative to control; format: functional, U-87MG ATCC
MDA-MB-231 [20] = assay: Antiproliferative activity against human MDA-MB-231 cells assessed as cell viability up to 50 uM measured after 72 hrs incubation by MTT assay relative to control; format: functional
[21] = target: T2, Protein fem-1 homolog B/Histone deacetylase 1; assay: PROTAC activity at FEM1B/HDAC1 in human MDA-MB-231 cell lysate assessed as protein degradation at 10 uM measured after 24 hrs by Western immunoassay relative to control; format: subcellular
Target sequence in this assay (Q13547 whole entry, looked up): as the sequence (Q13547 whole entry, looked up) above
Target sequence in this assay (Q9UK73 whole entry, looked up): as the sequence (Q9UK73 whole entry, looked up) above

[22] = target: T2, Protein fem-1 homolog B/Histone deacetylase 1; assay: PROTAC activity at FEM1B/HDAC1 in human U-87 MG cell lysate assessed as protein degradation at 10 uM measured after 24 hrs by Western immunoassay relative to control; format: subcellular
Target sequence in this assay (Q13547 whole entry, looked up): as the sequence (Q13547 whole entry, looked up) above
Target sequence in this assay (Q9UK73 whole entry, looked up): as the sequence (Q9UK73 whole entry, looked up) above

[23] = target: T2, Protein fem-1 homolog B/Histone deacetylase 1; assay: PROTAC activity at FEM1B/HDAC1 in human MM1.S cell lysate assessed as neddylation-dependent protein degradation at 1 uM measured after 24 hrs by Western immunoassay; format: subcellular
Target sequence in this assay (Q13547 whole entry, looked up): as the sequence (Q13547 whole entry, looked up) above
Target sequence in this assay (Q9UK73 whole entry, looked up): as the sequence (Q9UK73 whole entry, looked up) above

[24] = target: T2, Protein fem-1 homolog B/Histone deacetylase 1; assay: PROTAC activity at FEM1B/HDAC1 in human MV4-11 cell lysate assessed as protein degradation at 10 uM measured after 24 hrs by Western immunoassay relative to control; format: subcellular
MM1.S [25] = assay: Antiproliferative activity against human MM1.S cells assessed as cell viability up to 50 uM measured after 72 hrs incubation by MTT assay; format: functional
MM1.S [26] = assay: Antiproliferative activity against human MM1.S cells assessed as cell viability up to 50 uM measured after 72 hrs by CellTiter-Glo cell viability assay; format: functional, cell-based

Protein fem-1 homolog B/Protein deacetylase HDAC6 (Homo sapiens), sequence (Q9UK73 whole entry, looked up, one chain of several): as the sequence (Q9UK73 whole entry, looked up) above
Protein fem-1 homolog B/Histone deacetylase 8 (Homo sapiens), sequence (Q9BY41 whole entry, looked up): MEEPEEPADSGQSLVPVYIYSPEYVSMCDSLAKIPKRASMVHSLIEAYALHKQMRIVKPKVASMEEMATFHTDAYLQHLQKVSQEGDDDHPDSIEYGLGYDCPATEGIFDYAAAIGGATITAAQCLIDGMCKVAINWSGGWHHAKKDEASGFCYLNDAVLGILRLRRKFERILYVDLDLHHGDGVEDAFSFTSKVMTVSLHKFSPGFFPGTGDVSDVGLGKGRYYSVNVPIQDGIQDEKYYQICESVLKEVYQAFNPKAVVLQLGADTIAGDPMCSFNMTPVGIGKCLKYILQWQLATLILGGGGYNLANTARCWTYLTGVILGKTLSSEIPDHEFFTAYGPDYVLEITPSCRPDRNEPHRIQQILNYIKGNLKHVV
Protein fem-1 homolog B/Histone deacetylase 8 (Homo sapiens), sequence (Q9UK73 whole entry, looked up): as the sequence (Q9UK73 whole entry, looked up) above
Histone deacetylase 1, sequence (Q13547 whole entry): as the sequence (Q13547 whole entry, looked up) above

- IC50 [1]: 4 nM
- IC50 (Histone deacetylase 4): 3620 nM
- Emax [2]: 67.4%
- Activity [3]: inactive
- EC50 (U-87 MG [4]): 49700 nM
- Activity [6]: inactive
- DC50 [7]: 228 nM
- Activity [8]: Active
- IC50 (Histone deacetylase 2): 143 nM
- EC50 (MV4-11): 358 nM
- Activity [9]: Active
- EC50 (MM1.S [10]): 2280 nM
- EC50 (MM1.S [11]): 2280 nM
- Activity [12]: inactive
- IC50 (Histone deacetylase 1): 70 nM
- EC50 (MDA-MB-231 [13]): 23300 nM
- Activity [14]: 52.8%
- Activity [16]: Active
Compound: N#CCCN(C(=O)CCl)c1ccc2c(c1)OCCN2CC(=O)NCCCCCCCC(=O)Nc1ccc(C(=O)NCCCCCCC(=O)NO)cc1
- Activity (MM1.S [5]): Active
- Activity (MM1.S [15]): Active
- Activity (MM1.S [17]): Active
- Activity (MM1.S [18]): Active

- EC50 (MM1.S [11]): 1520 nM
Compound: N#CCCN(C(=O)CCl)c1ccc2c(c1)OCCN2CC(=O)NCCCCCCCCCCCC(=O)Nc1ccc(C(=O)NCCCCCCC(=O)NO)cc1

- EC50 (MM1.S [11]): 42300 nM
Compound: N#CCCN(C(=O)CCl)c1ccc2c(c1)OCCN2CC(=O)NCCOCCOCCOCCOCCC(=O)Nc1ccc(C(=O)NCCCCCCC(=O)NO)cc1

Compound: CCC(=O)N(CCC#N)c1ccc2c(c1)OCCN2CC(=O)NCC(=O)Nc1ccc(C(=O)NCCCCCCC(=O)NO)cc1.O=C(O)C(F)(F)F
- Activity (U-87 MG [19]): <=25%
- Activity (MM1.S [5]): inactive
- EC50 (MV4-11): 14100 nM
- Activity (MDA-MB-231 [20]): <=25%
- Activity [21]: inactive
- Activity (MM1.S [15]): inactive
- Activity [22]: inactive
- Activity [23]: inactive
- Activity [24]: inactive
- Activity (MM1.S [17]): inactive
- Activity (MM1.S [25]): <=25%
- Activity (MM1.S [18]): inactive

- EC50 (MV4-11): 17500 nM
Compound: O=C(CCCCCCNC(=O)c1ccc(NC(=O)CCCCCCCNC(=O)COc2cccc3c2C(=O)N(C2CCC(=O)NC2=O)C3=O)cc1)NO (centres undefined)
- Activity (U-87 MG [19]): <=25%
- Activity (MM1.S [5]): inactive
- Activity (MM1.S [26]): inactive
- Activity (MDA-MB-231 [20]): <=25%
- Activity (MM1.S [15]): inactive
- Activity (MM1.S [17]): inactive
- Activity (MM1.S [25]): <=25%
- Activity (MM1.S [18]): inactive

- IC50 [1]: 6 nM
- IC50 (Histone deacetylase 4): 8600 nM
- Emax [2]: 79.8%
- Activity [3]: inactive
- EC50 (U-87 MG [4]): 66000 nM
- Activity [6]: inactive
- DC50 [7]: 482 nM
- Activity [8]: Active
- IC50 (Histone deacetylase 2): 196 nM
- EC50 (MV4-11): 1140 nM
- Activity [9]: Active
- EC50 (MM1.S [10]): 4730 nM
- EC50 (MM1.S [11]): 4730 nM
- Activity [12]: inactive
- IC50 (Histone deacetylase 1): 94 nM
- EC50 (MDA-MB-231 [13]): 8680 nM
- Activity [14]: 61.9%
- Activity [16]: Active
Compound: N#CCCN(C(=O)CCl)c1ccc2c(c1)OCCN2CC(=O)N1CCC(C(=O)Nc2ccc(C(=O)NCCCCCCC(=O)NO)cc2)CC1
- Activity (MM1.S [5]): Active
- Activity (MM1.S [15]): Active
- Activity (MM1.S [17]): Active
- Activity (MM1.S [18]): Active

- EC50 (MM1.S [11]): 35200 nM
Compound: N#CCCN(C(=O)CCl)c1ccc2c(c1)OCCN2CC(=O)NCCOCCOCCOCCC(=O)Nc1ccc(C(=O)NCCCCCCC(=O)NO)cc1

- EC50 (MM1.S [11]): 7750 nM
Compound: N#CCCN(C(=O)CCl)c1ccc2c(c1)OCCN2CC(=O)NC1CCC(C(=O)Nc2ccc(C(=O)NCCCCCCC(=O)NO)cc2)CC1 (centres undefined)
